How the values were obtained:
Assay type in all cases: cell-based
MAIT cells in human PBMC [1] = assay: Primary MAIT activation (CD69) in PBMCs; details: 16 h, ligand alone
[2] = test system: SKW-3 cells expressing MBV28 (TRAV1-2/TRBV28) TCR; assay: MAIT cell activation assay, SKW-3 MBV28 TCR co-cultured with C1R.MR1; details: SKW-3 MBV28, ligand alone
Protocol: (§1) Next, we explored whether RF catabolites could activate SKW-3 cells expressing two different MAIT TCRs. Distinct responses of T cells expressing TCRs with varying TRBV chain usage reinforces the role of Vβ in modulating MAIT responses to various ligands ([Chancellor et al., 2023]; [Gherardin et al., 2016]; [Seneviratna et al., 2022]).The surface expression of CD69 was measured as a marker for activation of cells expressing the AF-7 (TRAV1-2/TRBV6-1) or MBV28 (TRAV1-2/TRBV28) TCRs after co-culture with C1R.MR1 cells and the ligands.
(§2) C1R.MR1 cells (1 x 10^5) were initially stained with CTV for 15 minutes and then incubated with RF catabolites for 20 h. […] Cells were subsequently stained with PE-Cy7-conjugated anti-CD69 (BD; 1:100) and PE-labelled anti-MR1 (26.5 clone; BD; 1:100), before analysis on LSRFortessa (BD Biosciences) flow cytometer. Activation of SKW-3-MAIT cells was reflected by the cell-surface CD69 expression.

[3] = test system: SKW-3 cells expressing AF-7 (TRAV1-2/TRBV6-1) TCR; assay: MAIT cell activation assay, SKW-3 AF-7 TCR co-cultured with C1R.MR1; details: SKW-3 AF-7, ligand alone
Protocol: as §1, §2

MAIT cells in human PBMC [4] = assay: MAIT cell proliferation in CTV-labeled PBMCs; details: day 7, 5-OP-RU 10 μM, RF ligands 100 μM
C1R.MR1 cells [5] = assay: Intracellular total folded MR1 by flow cytometry (8F2.F9); details: C1R.MR1, 100 μM, 16 h
C1R.MR1 cells [6] = assay: Endo H treatment and western blot of intracellular MR1; details: C1R.MR1, 16 h; RF and catabolites 100 μM, Ac-6-FP 10 μM
Protocol: The downregulation of MR1 on the cell surface by the RF catabolites could be due to the depletion of the intracellular ER-resident MR1 pool, or by retention of MR1 in the ER, as shown for the DB28 ligand ([Salio et al., 2020]). To investigate this, C1R.MR1 cells were treated for 16 h with 100 μM of RF or RF catabolites, conditions which induce MR1 downregulation (Fig. 3A). Cells were lysed, and treated with endoglycosidase (Endo) H, to distinguish molecules that remain within the ER from those that have trafficked to the cell surface ([McWilliam et al., 2016]), then MR1 levels were assessed by immunoblotting (Fig. 3A).
Figure 3. […] S, Endo H–susceptible MR1; R, Endo H–resistant MR1. The Endo H–susceptible MR1 and Endo H–resistant MR1 fractions were quantified in at least two independent experiments. (b) Intracellular total MR1 level was also measured in C1R.MR1 cells by flow cytometry after treating the cells with the indicated ligands (100 μM) for 16h followed by permeabilization and staining with anti-MR1-PE (8F2.F9). Shown are the overlay histograms (top) and a bar chart depicting the geometric mean fluorescence intensity (gMFI) fold change of intracellular MR1 level (bottom) from three independent experiments performed in duplicates, with standard error (SEM) represented by the error bars. […]

C1R.MR1^R9H cells = assay: Cell surface MR1 R9H quantification, C1R.MR1^R9H
Excerpt: We then tested the effect of the RF catabolites on the expression of two mutant versions of MR1 termed MR1^R9H ([Howson et al., 2020]) and MR1^K43A ([Reantragoon et al., 2013]). First, we tested the MR1^R9H mutant ([Howson et al., 2020]) which represents a rare, natural human polymorph. […] When C1R. […] Next, we tested sought to understand how the previously characterised Lys43A mutation affects ligand binding. […] While this is in line with the ability of these ligands to bind MR1, the reason for MR1^K43A cell surface accumulation is less clear. The most likely explanation is that these ligands bind ER-resident MR1^K43A, in line with our data using wild-type MR1; however, because the K43A mutation results in spontaneous MR1 surface egress, the presence of these stabilising ligands promotes enhanced trafficking and/or retention at the cell surface. We cannot rule out however that the ligands may also bind directly to surface MR1^K43A and slow down the recycling from cell surface.
The level of MR1 expressed on the cell surface was measured after the exposure to the investigated ligands as previously described ([Awad et al., 2020a]; [Wang et al., 2022a]). […] The PE fluorescence intensity reflects the surface MR1 level. The data was acquired with an LSRFortessa X-20 (BD Biosciences) and Diva software (BD Biosciences) and analyzed using FlowJo software (BD Biosciences).

| Structure (SMILES) | CD69 expression on gated MAIT cells (MAIT cells in human PBMC [1]) | CD69 surface expression (activation) [2] | CD69 surface expression (activation) [3] | MAIT cell proliferation (MAIT cells in human PBMC [4]) | total level of folded MR1 (intracellular staining with 8F2.F9) (C1R.MR1 cells [5]) | Endo H-resistant MR1 (C1R.MR1 cells [6]) | MR1^R9H surface level (C1R.MR1^R9H cells) |
| --- | --- | --- | --- | --- | --- | --- | --- |
| CC(=O)C=Nc1c(NC[C@H](O)[C@H](O)[C@H](O)CO)[nH]c(=O)[nH]c1=O [5-OP-RU, 5-(2-oxopropylideneamino)-6-D-ribitylaminouracil, reference compound] | induced robust CD69 upregulation | induced strong activation | induced strong activation | significantly proliferated | – | – | – |
| Nc1nc2ncc(C=O)nc2c(=O)[nH]1 [6-FP, 6-formylpterin, reference compound] | – | moderately reduced basal CD69 levels | moderately reduced basal CD69 levels | – | – | – | – |
| CC(=O)Nc1nc2ncc(C=O)nc2c(=O)[nH]1 [Ac-6-FP, acetyl-6-FP, reference compound] | – | – | – | – | significantly increased | increase in MR1 of a higher molecular weight | significantly increased |
